Measured values: PubChem BioAssay (NCI)
Several values for one entry are separate records, joined by “and”; a condition that tells them apart may be missing. Identical values can stand only once.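 Compound exposure: 48 hours, 5 concentrations, 96-well plates. GI50 = concentration required for 50% inhibition of growth. TGI denotes the concentration required for complete inhibition of growth.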

Key:
Assay in all cases: NCI anticancer screen, dose series, 48 h
[1] = test system: SK-OV-3 ovarian
[2] = test system: NCI-H522 lung
[3] = test system: SK-MEL-2 melanoma
[4] = test system: SF-268 CNS
[5] = test system: CAKI-1 renal
[6] = test system: SK-MEL-5 melanoma
[7] = test system: T-47D breast
[8] = test system: NCI/ADR-RES ovarian
[9] = test system: MDA-MB-231 breast
[10] = test system: MDA-MB-435

COc1cc(OC)c2c(=O)c3cccc([N+](=O)[O-])c3n(C)c2c1
TGI [1]: > 100 µM | TGI [2]: > 100 µM | TGI [3]: > 100 µM | TGI [4]: > 100 µM | TGI [5]: > 100 µM | TGI [6]: > 100 µM

O=C1OC(=O)C([Se]c2ccccc2)=C1[Se]c1ccccc1
TGI [1]: > 100 µM | TGI [2]: > 100 µM | TGI [4]: > 100 µM | TGI [5]: > 100 µM | TGI [6]: > 100 µM

C[C@H]1CC[P+](C)(c2ccccc2)C1 (some centres undefined)
TGI [1]: > 100 µM | TGI [2]: > 100 µM | TGI [3]: > 100 µM | TGI [6]: > 100 µM

N#CCc1cccc(CC#N)c1Br
TGI [1]: > 100 µM | TGI [2]: > 100 µM | TGI [3]: > 100 µM | TGI [4]: > 100 µM | TGI [5]: > 100 µM

O=C1CCC(=O)N1Sc1ccccc1
TGI [1]: > 100 µM | TGI [2]: > 100 µM | TGI [3]: > 100 µM | TGI [4]: > 100 µM | TGI [5]: > 100 µM | TGI [6]: > 100 µM

CCCCCCCCCCCCCCCC[n+]1ccccc1
GI50 [1]: 1.03 µM and 0.692 µM | TGI [1]: 2.5 µM and 2.72 µM | GI50 [7]: 0.5 µM and 0.445 µM | TGI [7]: 3.42 µM and 3.91 µM | GI50 [2]: 0.226 µM | TGI [2]: 0.947 µM | GI50 [3]: 0.468 µM | TGI [3]: 1.76 µM | GI50 [4]: 0.452 µM and 0.861 µM | TGI [4]: 1.71 µM and 2.57 µM | GI50 [5]: 0.616 µM and 1.13 µM | TGI [5]: 3.38 µM and 10.2 µM | GI50 [8]: 2.56 µM and 4.38 µM | TGI [8]: 15.1 µM and 27 µM | GI50 [9]: 0.44 µM and 0.805 µM | TGI [9]: 1.74 µM and 2.7 µM

CCN(c1ccccc1)[C@H]1C(=O)N(c2ccc([N+](=O)[O-])cc2)[C@H]1c1ccc(OC)cc1
TGI [1]: > 100 µM | TGI [2]: > 100 µM | TGI [3]: > 100 µM | TGI [4]: > 100 µM | TGI [5]: > 100 µM | TGI [6]: > 100 µM

CC(=O)OCC1OC(n2c3c(cc(C#N)c2=S)CCCC3)C(OC(C)=O)C(OC(C)=O)C1OC(C)=O (centres undefined)
GI50 [7]: > 100 µM | TGI [7]: > 100 µM | TGI [2]: > 100 µM and 98.7 µM | GI50 [3]: > 100 µM and 27 µM | TGI [3]: > 100 µM | GI50 [4]: > 100 µM and 22.9 µM | TGI [4]: > 100 µM | TGI [10]: > 100 µM | GI50 [5]: > 100 µM and 42.1 µM | TGI [5]: > 100 µM | TGI [8]: > 100 µM | TGI [6]: > 100 µM | TGI [9]: > 100 µM

COc1ccc(-c2c(N)noc2-c2cc(OC)c3c(c2)OCCO3)cc1
GI50 [1]: < 0.0121 µM | TGI [1]: 1.01 µM | GI50 [7]: 0.64 µM | TGI [7]: 41.2 µM | GI50 [3]: < 0.01 µM | TGI [3]: 67.5 µM | GI50 [4]: 0.0481 µM | TGI [4]: > 100 µM | GI50 [10]: < 0.01 µM | TGI [10]: 0.0102 µM | GI50 [5]: < 0.01 µM | TGI [5]: 34.1 µM | GI50 [8]: < 0.01 µM | TGI [8]: 0.0226 µM | GI50 [6]: < 0.01 µM | TGI [6]: 0.176 µM | GI50 [9]: 0.0851 µM | TGI [9]: > 43.3 µM

O=NNc1ccc(S(=O)(=O)c2ccc3ccccc3c2)cn1
TGI [1]: > 100 µM | TGI [7]: > 100 µM | TGI [2]: > 100 µM | TGI [3]: > 100 µM | TGI [4]: > 100 µM | TGI [5]: > 100 µM | TGI [8]: > 100 µM | TGI [6]: > 100 µM | TGI [9]: > 100 µM

COCC(C(=O)OC1C/C=C/C=C/C(=O)OC(C(C)C(O)C(C)CCC(OC(=O)C(C)N(C)C)C(C)C(OC(C)=O)C(C)/C=C/N(C)C=O)C/C=C/C(OC)CC(C)C/C=C(\C)C(OC)CCC(C)C(O)C1C)N(C)C (centres undefined)
GI50 [1]: < 0.0001 µM | TGI [1]: 0.0164 µM | GI50 [7]: 0.0479 µM | TGI [7]: > 1 µM | GI50 [2]: < 0.0001 µM | TGI [2]: < 0.0001 µM | GI50 [3]: < 0.0001 µM | TGI [3]: 0.00774 µM | GI50 [4]: < 0.0001 µM | TGI [4]: 0.00161 µM | GI50 [5]: < 0.0001 µM | TGI [5]: 0.007 µM | GI50 [8]: < 0.0001 µM | TGI [8]: 0.000552 µM | GI50 [6]: < 0.0001 µM | TGI [6]: 0.00144 µM | GI50 [9]: < 0.0001 µM | TGI [9]: 0.00136 µM

CC(C)OP(=O)(O)c1ncc(-c2ccc(C(F)(F)F)cc2)c(NC2CCCCCC2)n1
GI50 [1]: > 100 µM | TGI [1]: > 100 µM | GI50 [7]: 34.9 µM | TGI [7]: > 100 µM | GI50 [2]: 38.5 µM | TGI [2]: > 100 µM | GI50 [4]: > 100 µM | TGI [4]: > 100 µM | GI50 [10]: > 100 µM | TGI [10]: > 100 µM | GI50 [5]: > 100 µM | TGI [5]: > 100 µM | GI50 [8]: > 100 µM | TGI [8]: > 100 µM | GI50 [6]: 51 µM | TGI [6]: > 100 µM | GI50 [9]: > 100 µM | TGI [9]: > 100 µM

COc1ccc(C)cc1NC(=S)C#N
TGI [1]: > 100 µM | TGI [7]: > 100 µM | TGI [3]: > 100 µM | TGI [4]: > 100 µM | TGI [10]: > 100 µM | TGI [5]: > 100 µM | TGI [8]: > 100 µM | TGI [6]: > 100 µM | TGI [9]: > 100 µM

Nc1ccccc1C#Cc1ccccc1C#Cc1cccs1
GI50 [1]: 32.7 µM | TGI [1]: > 100 µM | GI50 [2]: 18.4 µM | TGI [2]: 49.1 µM | GI50 [3]: 30.2 µM | TGI [3]: 73.5 µM | GI50 [4]: 20.4 µM | TGI [4]: 42.8 µM | GI50 [10]: 4.03 µM | TGI [10]: 14.3 µM | GI50 [5]: 11 µM | TGI [5]: 25.1 µM | GI50 [8]: 16 µM | TGI [8]: 30.7 µM | GI50 [6]: 7.59 µM | TGI [6]: 22.3 µM | GI50 [9]: 11.8 µM | TGI [9]: 28.2 µM

COc1cccc(/C=N\NC(=O)C(C)SC(C)C(=O)N/N=C/c2cccc(OC)c2)c1 (centres undefined)
TGI [1]: 32.4 µM | TGI [2]: 59.1 µM | TGI [3]: > 62.6 µM | TGI [4]: 97.5 µM | TGI [5]: > 80.8 µM | TGI [6]: > 100 µM

COc1cc2cc(Oc3cccc(NC(=O)Nc4cc(C(F)(F)F)cc(C(F)(F)F)c4)c3)c(C)nc2cc1OC
GI50 [1]: 1.71 µM | TGI [1]: 3.47 µM | GI50 [7]: 1.48 µM | TGI [7]: 5.67 µM | GI50 [2]: 1.25 µM | TGI [2]: 2.95 µM | GI50 [3]: 1.82 µM | TGI [3]: 4.24 µM | GI50 [4]: 1.62 µM | TGI [4]: 3.68 µM | GI50 [10]: 1.8 µM | TGI [10]: 4.28 µM | GI50 [5]: 1.41 µM | TGI [5]: 5.1 µM | GI50 [6]: 1.62 µM | TGI [6]: 3.28 µM | GI50 [9]: 1.08 µM | TGI [9]: 2.49 µM

C1=CC2CCC1CN2CCC1CNc2ccccc21 (centres undefined)
TGI [1]: > 100 µM | TGI [2]: > 100 µM | TGI [3]: > 100 µM | TGI [4]: > 100 µM

COc1ccc(-c2cc(/C=C/C(=O)c3ccc(N)cc3)[nH]n2)cc1
GI50 [1]: 4.72 µM | TGI [1]: 18 µM | GI50 [7]: 1.47 µM | TGI [7]: 9.77 µM | GI50 [2]: 1.21 µM | TGI [2]: 2.91 µM | GI50 [4]: 1.82 µM | TGI [4]: 5.31 µM | GI50 [10]: 2.24 µM | TGI [10]: 7 µM | GI50 [5]: 1.32 µM | TGI [5]: 11.1 µM | GI50 [8]: 2.86 µM | TGI [8]: 15.5 µM | GI50 [6]: 2.71 µM | TGI [6]: 9.25 µM | GI50 [9]: 2.14 µM | TGI [9]: 8.29 µM

COc1ccc(Br)c(C(=O)N2CCc3ccccc32)c1N
TGI [1]: 80.2 µM | TGI [2]: 36.8 µM | TGI [3]: 84.5 µM | TGI [6]: > 100 µM

CCOC1Oc2ccc(C)cc2C(=O)/C1=C\Nc1ccc(S(N)(=O)=O)cc1 (centres undefined)
GI50 [1]: 17.7 µM | TGI [1]: > 50 µM | GI50 [2]: > 50 µM | TGI [2]: > 50 µM | GI50 [3]: 24.3 µM | TGI [3]: > 50 µM | GI50 [4]: 16.1 µM | TGI [4]: > 50 µM | GI50 [10]: 10 µM | TGI [10]: 23.8 µM | GI50 [5]: 10.6 µM | TGI [5]: 23.3 µM | GI50 [8]: 6.14 µM | TGI [8]: 18.5 µM | GI50 [6]: 7.79 µM | TGI [6]: 17.3 µM | GI50 [9]: 11.7 µM | TGI [9]: 35.5 µM
